The text below walks through data of patent US12540118B2, “Dendrene amide compound, bactericide and use thereof” (Jiangsu Flag Chemical Industry Co., Ltd., priority 2020, dated 2026).

In one experiment the test system is Sphaerotheca fuliginea. The experiment is described as follows: Sphaerotheca fuliginea potting method. As to conditions: Podosphaera fuliginea; 100 mg/L; read-out: Sphaerotheca fuliginea control rating. In kind it is in vivo. How it is done: The fungicidal activity of the control agents and target compounds are determined. The test and investigation method refers to SOP-SC-1101 sphaerotheca fuliginea potting method in disinfectant rolls written by KANGZHUO and GUBAOGEN in “Standard operation specification for testing biological activity of pesticides”.

The target in another experiment is T1, succinate dehydrogenase (Sus scrofa, UniProt A5GZW8+D0VWV4+Q007T0).
T1 construct: isolated from porcine hearts; from tissue; host or cells: porcine heart
T1 sequence (Q0QF01 43-664 partner): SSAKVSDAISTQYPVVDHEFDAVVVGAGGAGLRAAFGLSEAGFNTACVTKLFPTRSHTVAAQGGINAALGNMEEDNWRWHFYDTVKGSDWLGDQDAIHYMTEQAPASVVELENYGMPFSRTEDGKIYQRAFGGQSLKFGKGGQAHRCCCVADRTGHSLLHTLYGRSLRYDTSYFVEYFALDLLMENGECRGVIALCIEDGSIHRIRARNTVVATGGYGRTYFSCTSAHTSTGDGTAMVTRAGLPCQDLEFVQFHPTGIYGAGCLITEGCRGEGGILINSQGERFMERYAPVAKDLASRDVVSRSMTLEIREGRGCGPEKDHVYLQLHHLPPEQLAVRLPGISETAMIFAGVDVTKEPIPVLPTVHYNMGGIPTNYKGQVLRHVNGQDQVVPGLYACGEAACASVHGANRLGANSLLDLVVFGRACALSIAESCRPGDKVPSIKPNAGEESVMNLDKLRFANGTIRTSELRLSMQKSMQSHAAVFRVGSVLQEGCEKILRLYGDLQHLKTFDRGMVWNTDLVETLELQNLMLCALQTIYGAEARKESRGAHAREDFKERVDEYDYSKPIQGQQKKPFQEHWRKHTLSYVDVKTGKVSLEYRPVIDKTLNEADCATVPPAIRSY
T1 sequence (Q007T0 29-280): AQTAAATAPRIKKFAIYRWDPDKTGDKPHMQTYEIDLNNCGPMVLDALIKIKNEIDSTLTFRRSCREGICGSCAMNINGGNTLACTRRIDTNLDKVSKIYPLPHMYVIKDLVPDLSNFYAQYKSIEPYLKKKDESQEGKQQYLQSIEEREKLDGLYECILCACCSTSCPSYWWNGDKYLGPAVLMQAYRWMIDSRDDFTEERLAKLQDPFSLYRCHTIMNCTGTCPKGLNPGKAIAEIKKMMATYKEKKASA
T1 sequence (D0VWV4 30-169): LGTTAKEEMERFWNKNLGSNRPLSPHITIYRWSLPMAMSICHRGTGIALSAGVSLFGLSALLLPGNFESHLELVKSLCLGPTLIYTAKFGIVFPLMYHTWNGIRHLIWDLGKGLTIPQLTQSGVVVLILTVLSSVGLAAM
T1 sequence (A5GZW8 57-159 limits assumed): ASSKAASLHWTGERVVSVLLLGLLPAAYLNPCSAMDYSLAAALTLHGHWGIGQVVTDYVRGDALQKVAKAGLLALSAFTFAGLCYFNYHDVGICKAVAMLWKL
Kind of experiment: Enzyme activity assay, succinate dehydrogenase (DCIP reduction). Format: biochemical, porcine. As to conditions: read-out: Inhibitors (10 μM, SQR). As for the experimental part:
The inhibitory activities of control agents and target compounds on succinate dehydrogenase are determined.
The enzyme used in this test example is succinate dehydrogenase, which is isolated from porcine hearts.
The test method comprises the following steps: The total volume of the system is 1.8 ml, and the system contained 100 mM Na2HPO4—NaH2PO4 buffer (pH=7.4), 0.3 mM EDTA, 20 mM sodium succinate, 53 μM DCIP (2,6-dichloroindophenol sodium), and 2 nM succinate dehydrogenase. Thermostatic waterbath at 23° C. and magnetic stirring at 600 rpm. The decrease in the light absorption of the substrate DCIP is monitored at a wavelength of 600 nm and experimental points in a linear range are collected. Control substrate consumption not more than 5% of the experimental points. The molar extinction coefficient of DCIP is 21 mM^−1 cm^−1. And calculating the reduction yield of the DCIP in the reaction time, fitting a linear slope, and deducting the baseline slope to obtain the initial reaction speed.

In a further experiment the test system is Erysiphe graminis. The experiment is described as follows: Erysiphe graminis potting method. Format: in vivo. As to conditions: Blumeria graminis, read-out: Erysiphe graminis control rating; for pest or weed control at 100 µg/mL: 100 mg/L; for pest or weed control at 6.25 µg/mL: 6.25 mg/L; for pest or weed control at 25 µg/mL: 25 mg/L. How it is done:
The fungicidal activity of the control agents and target compounds are determined. The test and investigation method refers to SOP-SC-1116 Erysiphe graminis potting method in disinfectant rolls written by KANGZHUO and GUBAOGEN in “Standard operation specification for testing biological activity of pesticides”.

For the compound `C=C(CN(C(=O)c1c(C(F)F)nn(C)c1F)C1CC1)c1cccc(Cl)c1` [Compound 16], the pest or weed control at 100 µg/mL in the experiment on Sphaerotheca fuliginea lay in the range of 70 to 80%; in the experiment with Erysiphe graminis, 80 to 100%. Also, the inhibition at 10 µM at succinate dehydrogenase is > 90%.
On the same counts, the results for `C=C(CN(C(=O)c1c(C(F)F)nn(C)c1F)C1CC1)c1ccc(Cl)cc1` [Compound 17] are 80 to 100%, 80 to 100% and > 90%.
On the same counts, the results for `C=C(CN(C(=O)c1c(C(F)F)nn(C)c1F)C1CC1)c1c(Cl)cccc1Cl` [Compound 18] are 80 to 100%, 80 to 100% and > 90%.
On the same counts, the results for `C=C(CN(C(=O)c1c(C(F)F)nn(C)c1F)C1CC1)c1c(Cl)cc(Cl)cc1Cl` [Compound 19] are 80 to 100%, 80 to 100% and > 90%.
For the compound `C=C(CN(C(=O)c1c(C(F)F)nn(C)c1F)C1CC1)c1ccccc1F` [Compound 20], the pest or weed control at 100 µg/mL in the experiment with Sphaerotheca fuliginea and in the experiment on Erysiphe graminis was 80 to 100% each time. For the same compound, the inhibition at 10 µM on succinate dehydrogenase is > 90%.
For `C=C(CN(C(=O)c1c(C(F)F)nn(C)c1F)C1CC1)c1cccc(F)c1` [Compound 21], the figures for the pest or weed control at 100 µg/mL in the experiment on Sphaerotheca fuliginea and in the experiment with Erysiphe graminis were 70 to 80% and 80 to 100%, respectively. The inhibition at 10 µM on succinate dehydrogenase is > 90%.
On the same counts, the results for `C=C(CN(C(=O)c1c(C(F)F)nn(C)c1F)C1CC1)c1ccc(F)cc1` [Compound 22] are 80 to 100%, 80 to 100% and > 90%.
On the same counts, the results for `C=C(CN(C(=O)c1c(C(F)F)nn(C)c1F)C1CC1)c1ccc(F)cc1F` [Compound 23] are 80 to 100%, 80 to 100% and > 90%.
Taken in the same sequence, the figures for `C=C(CN(C(=O)c1c(C(F)F)nn(C)c1F)C1CC1)c1cc(F)ccc1F` [Compound 24] were 80 to 100%, 80 to 100% and > 90%.
Turning to `C=C(CN(C(=O)c1c(C(F)F)nn(C)c1F)C1CC1)c1c(F)cccc1F` [Compound 25], the pest or weed control at 100 µg/mL in the experiment on Sphaerotheca fuliginea and in the experiment on Erysiphe graminis was 80 to 100% in each case. In addition, on succinate dehydrogenase, the inhibition at 10 µM is > 90%.
Turning to `C=C(CN(C(=O)c1c(C(F)F)nn(C)c1F)C1CC1)c1c(F)cc(F)cc1F` [Compound 26], the pest or weed control at 100 µg/mL in the experiment on Sphaerotheca fuliginea and in the experiment with Erysiphe graminis was 80 to 100% each time. Moreover, the inhibition at 10 µM at succinate dehydrogenase is > 90%.
`C=C(CN(C(=O)c1c(C(F)F)nn(C)c1F)C1CC1)c1ccc(Br)cc1` [Compound 27]: the pest or weed control at 100 µg/mL with Sphaerotheca fuliginea and in the experiment with Erysiphe graminis was 80 to 100% each time. Also, the inhibition at 10 µM on succinate dehydrogenase is > 90%.
`C=C(CN(C(=O)c1c(C(F)F)nn(C)c1F)C1CC1)c1ccc(Br)cc1Br` [Compound 28]: the pest or weed control at 100 µg/mL in the experiment with Sphaerotheca fuliginea and in the experiment with Erysiphe graminis was 80 to 100% in each case. Besides, the inhibition at 10 µM on succinate dehydrogenase is > 90%.
On to `C=C(CN(C(=O)c1c(C(F)F)nn(C)c1F)C1CC1)c1cc(Br)ccc1Br` [Compound 29], for which the pest or weed control at 100 µg/mL with Sphaerotheca fuliginea and in the experiment on Erysiphe graminis was 80 to 100% throughout. For the same compound, at succinate dehydrogenase, the inhibition at 10 µM is > 90%.
Turning to `C=C(CN(C(=O)c1c(C(F)F)nn(C)c1F)C1CC1)c1c(Br)cccc1Br` [Compound 30], the pest or weed control at 100 µg/mL with Sphaerotheca fuliginea and in the experiment on Erysiphe graminis was 80 to 100% throughout. In addition, the inhibition at 10 µM on succinate dehydrogenase is > 90%.
`C=C(CN(C(=O)c1c(C(F)F)nn(C)c1F)C1CC1)c1c(Br)cc(Br)cc1Br` [Compound 31]: the pest or weed control at 100 µg/mL with Sphaerotheca fuliginea and in the experiment on Erysiphe graminis was 80 to 100% in each case. Also, the inhibition at 10 µM at succinate dehydrogenase is > 90%.
Take `C=C(CN(C(=O)c1c(C(F)F)nn(C)c1F)C1CC1)c1cccc(C)c1` [Compound 32]: the pest or weed control at 100 µg/mL in the experiment on Sphaerotheca fuliginea was 70 to 80%; with Erysiphe graminis it was 80 to 100%. Further, the inhibition at 10 µM on succinate dehydrogenase is > 90%.
On the same counts, the results for `C=C(CN(C(=O)c1c(C(F)F)nn(C)c1F)C1CC1)c1ccc(C)cc1C` [Compound 33] are 80 to 100%, 80 to 100% and > 90%.
Take `C=C(CN(C(=O)c1c(C(F)F)nn(C)c1F)C1CC1)c1cc(C)ccc1C` [Compound 34]: the pest or weed control at 100 µg/mL with Sphaerotheca fuliginea was 80 to 100%. Further, the inhibition at 10 µM at succinate dehydrogenase is > 90%. Further, in the experiment with Erysiphe graminis, the pest or weed control at 6.25 µg/mL fell in the range of 70 to 80%, the pest or weed control at 25 µg/mL lay within 80 to 100% and the pest or weed control at 100 µg/mL was in the range of 80 to 100%.
In the case of `C=C(CN(C(=O)c1c(C(F)F)nn(C)c1F)C1CC1)c1c(C)cccc1C` [Compound 35], in the experiment on Sphaerotheca fuliginea, the pest or weed control at 100 µg/mL lay in the range of 80 to 100%. Also, on succinate dehydrogenase, the inhibition at 10 µM was > 90%. In addition, in the experiment with Erysiphe graminis, the pest or weed control at 6.25 µg/mL is 70 to 80%, the pest or weed control at 25 µg/mL is 80 to 100% and the pest or weed control at 100 µg/mL is 80 to 100%.
On to `C=C(CN(C(=O)c1c(C(F)F)nn(C)c1F)C1CC1)c1c(C)cc(C)cc1C` [Compound 36], for which, in the experiment with Sphaerotheca fuliginea, the pest or weed control at 100 µg/mL lay within 80 to 100%. Further, the inhibition at 10 µM on succinate dehydrogenase was > 90%. For the same compound, in the experiment with Erysiphe graminis, the pest or weed control at 6.25 µg/mL is 80 to 100%, the pest or weed control at 25 µg/mL was 80 to 100% and the pest or weed control at 100 µg/mL lay in the range of 80 to 100%.
Turning to `C=C(CN(C(=O)c1c(C(F)F)nn(C)c1F)C1CC1)c1cc(C(C)C)ccc1C` [Compound 37], the pest or weed control at 100 µg/mL in the experiment on Sphaerotheca fuliginea fell in the range of 70 to 80%. For the same compound, the inhibition at 10 µM on succinate dehydrogenase was > 90%. Also, in the experiment on Erysiphe graminis, the pest or weed control at 6.25 µg/mL lay in the range of 70 to 80%, the pest or weed control at 25 µg/mL was 80 to 100% and the pest or weed control at 100 µg/mL lay in the range of 80 to 100%.
In the case of `C=C(CN(C(=O)c1c(C(F)F)nn(C)c1F)C1CC1)c1cc(C)ccc1C(C)C` [Compound 38], in the experiment with Sphaerotheca fuliginea, the pest or weed control at 100 µg/mL lay in the range of 70 to 80%. For the same compound, the inhibition at 10 µM on succinate dehydrogenase was > 90%. In the experiment with Erysiphe graminis, the pest or weed control at 6.25 µg/mL is 70 to 80%, the pest or weed control at 25 µg/mL fell in the range of 80 to 100% and the pest or weed control at 100 µg/mL fell in the range of 80 to 100%.
For `C=C(CN(C(=O)c1c(C(F)F)nn(C)c1F)C1CC1)c1cc(C)ccc1C(C)(C)C` [Compound 39], the pest or weed control at 100 µg/mL is 70 to 80% in the experiment on Sphaerotheca fuliginea and 80 to 100% in the experiment on Erysiphe graminis. The inhibition at 10 µM at succinate dehydrogenase was > 90%.
On the same counts, the results for `C=C(CN(C(=O)c1c(C(F)F)nn(C)c1F)C1CC1)c1cc(C(C)(C)C)ccc1C` [Compound 40] are 70 to 80%, 80 to 100% and > 90%.
On the same counts, the results for `C=C(CN(C(=O)c1c(C(F)F)nn(C)c1F)C1CC1)c1ccc(C(C)C)cc1C` [Compound 41] are 80 to 100%, 80 to 100% and > 90%.
On the same counts, the results for `C=C(CN(C(=O)c1c(C(F)F)nn(C)c1F)C1CC1)c1ccc(Cl)cc1F` [Compound 42] are 80 to 100%, 80 to 100% and > 90%.
As to `C=C(CN(C(=O)c1c(C(F)F)nn(C)c1F)C1CC1)c1ccc(F)cc1Cl` [Compound 43], the pest or weed control at 100 µg/mL in the experiment on Sphaerotheca fuliginea and in the experiment with Erysiphe graminis was 80 to 100% in each case. For the same compound, at succinate dehydrogenase, the inhibition at 10 µM was > 90%.
`C=C(CN(C(=O)c1c(C(F)F)nn(C)c1F)C1CC1)c1cc(Cl)ccc1F` [Compound 44]: the pest or weed control at 100 µg/mL in the experiment with Sphaerotheca fuliginea and with Erysiphe graminis was 80 to 100% throughout. Further, the inhibition at 10 µM on succinate dehydrogenase was > 90%.
As to `C=C(CN(C(=O)c1c(C(F)F)nn(C)c1F)C1CC1)c1cc(C(F)(F)F)ccc1Cl` [Compound 45], the pest or weed control at 100 µg/mL in the experiment on Sphaerotheca fuliginea and in the experiment on Erysiphe graminis was 80 to 100% each time. In addition, at succinate dehydrogenase, the inhibition at 10 µM was > 90%.
For `C=C(CN(C(=O)c1c(C(F)F)nn(C)c1F)C1CC1)c1cccc(C(F)(F)F)c1Cl` [Compound 46], the pest or weed control at 100 µg/mL in the experiment with Sphaerotheca fuliginea and in the experiment on Erysiphe graminis was 80 to 100% in each case. In addition, the inhibition at 10 µM on succinate dehydrogenase was > 90%.
Take `C=C(CN(C(=O)c1c(C(F)F)nn(C)c1F)C1CC1)c1ccc(C(F)(F)F)cc1Cl` [Compound 47]: the pest or weed control at 100 µg/mL in the experiment with Sphaerotheca fuliginea and in the experiment with Erysiphe graminis was 80 to 100% in each case. Besides, the inhibition at 10 µM at succinate dehydrogenase is > 90%.
On to `C=C(CN(C(=O)c1c(C(F)F)nn(C)c1F)C1CC1)c1ccc(S(C)(=O)=O)cc1Cl` [Compound 48], for which the pest or weed control at 100 µg/mL with Sphaerotheca fuliginea and with Erysiphe graminis was 80 to 100% each time. Besides, at succinate dehydrogenase, the inhibition at 10 µM is > 90%.
As to `C=C(CN(C(=O)c1c(C(F)F)nn(C)c1F)C1CC1)c1cccc(S(C)(=O)=O)c1` [Compound 49], the pest or weed control at 100 µg/mL in the experiment with Sphaerotheca fuliginea and in the experiment with Erysiphe graminis was 80 to 100% throughout. Also, the inhibition at 10 µM at succinate dehydrogenase is > 90%.
